In paper PMC7589200, “Identification of Putative Non-Substrate-Based XT-I Inhibitors by Natural Product Library Screening” (Biomolecules, 2020):
Read-outs that look alike come from different tables or passages of the source.

Legend:
recombinant human XT-I = target: T1, recombinant human XT-I (Homo sapiens, UniProt Q86Y38); experiment: NP library inhibitor screening, UPLC/ESI-MS/MS XT-I assay; format: biochemical
T1 sequence (Q86Y38 252-959 limits assumed): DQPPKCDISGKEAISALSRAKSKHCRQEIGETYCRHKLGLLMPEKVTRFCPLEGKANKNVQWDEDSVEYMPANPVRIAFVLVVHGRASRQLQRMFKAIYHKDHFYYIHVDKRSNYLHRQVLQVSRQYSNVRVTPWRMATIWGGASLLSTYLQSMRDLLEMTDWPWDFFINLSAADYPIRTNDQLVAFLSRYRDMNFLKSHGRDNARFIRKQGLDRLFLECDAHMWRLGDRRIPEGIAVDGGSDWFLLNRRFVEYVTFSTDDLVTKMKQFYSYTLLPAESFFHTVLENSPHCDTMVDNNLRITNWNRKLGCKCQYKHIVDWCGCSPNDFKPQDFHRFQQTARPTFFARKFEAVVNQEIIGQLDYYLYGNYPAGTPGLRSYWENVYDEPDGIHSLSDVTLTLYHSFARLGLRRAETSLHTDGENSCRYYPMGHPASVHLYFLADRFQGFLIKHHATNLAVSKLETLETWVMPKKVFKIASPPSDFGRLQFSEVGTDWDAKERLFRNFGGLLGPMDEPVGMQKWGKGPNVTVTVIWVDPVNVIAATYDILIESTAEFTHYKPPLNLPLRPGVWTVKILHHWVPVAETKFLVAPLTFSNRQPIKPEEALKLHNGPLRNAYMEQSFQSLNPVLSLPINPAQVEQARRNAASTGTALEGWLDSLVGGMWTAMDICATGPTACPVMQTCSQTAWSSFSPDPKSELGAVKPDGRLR

miRNA-21 = miRNA-21 expression in NHDFs, TaqMan advanced miRNA assay; format: cell-based, human; settings: TGF-β1 5 µg/L, 48 h, serum-starved NHDFs
Experimental: (§1) The RNA extraction from cell lysates and cDNA synthesis for mRNA and miRNA expression analysis were performed as described previously.
The TaqMan advanced miRNA Assay (Thermo Fisher Scientific; Waltham, Massachusetts, United States) was performed, according to the manufacturer’s instructions, for the miRNA expression analyses. The primer assays miRNA-21 (477975_mir) and miRNA-191 (477952_mir) were used. The expression level of miRNA-21 determined was normalized to internal housekeeping gene expression of miRNA-191 via the ΔΔCT method.

SMAD7 mRNA expression = SMAD7 mRNA expression in NHDFs by qRT-PCR; format: cell-based, human; settings: TGF-β1 5 μg/L, 48 h
Experimental: (§2) A former established cell culture model was utilized to investigate the effect of putative XT-I inhibitors on NHDFs. The inhibition studies were carried out with final inhibitor concentrations of 0.5, 1.0, 2.0 or 4.0 μM diluted in fully supplemented DMEM. In brief, unless otherwise stated, NHDFs were cultivated with a low density of 50 cells per mm^2 on a hard tissue culture substrate (100 × 20 mm dish) in fully supplemented DMEM with or without additional TGF-β1 (5 μg/L) for 24 h, promoting their transdifferentiation into proto-myofibroblasts. Thereafter, cells were treated with celastrol or amphotericin B in the presence or absence of TGF-β1 (5 μg/L) for an additional 48 h. Negative controls treated with solvent only were included for every sampling time. The final DMSO content of 0.04% (v/v) was kept constant in all inhibition experiments. […]
(§3) Quantitative real-time polymerase chain reaction (qRT-PCR) analysis using a LightCycler 480 Instrument II system (Roche, Basel, Swiss) was performed as previously described. […] The geometric mean of the expression levels of the housekeeping genes SDHA, RPL13A and B2M were calculated for expression normalization. The relative target gene mRNA expressions were determined by the ΔΔCT method considering the PCR efficiency. […]

TGFB1 mRNA expression = TGFB1 mRNA expression in NHDFs by qRT-PCR; format: cell-based, human; settings: TGF-β1 5 μg/L, 48 h
Experimental: (§4) A former established cell culture model was utilized to investigate the effect of putative XT-I inhibitors on NHDFs. The inhibition studies were carried out with final inhibitor concentrations of 0.5, 1.0, 2.0 or 4.0 μM diluted in fully supplemented DMEM. In brief, unless otherwise stated, NHDFs were cultivated with a low density of 50 cells per mm^2 on a hard tissue culture substrate (100 × 20 mm dish) in fully supplemented DMEM with or without additional TGF-β1 (5 μg/L) for 24 h, promoting their transdifferentiation into proto-myofibroblasts. Thereafter, cells were treated with celastrol or amphotericin B in the presence or absence of TGF-β1 (5 μg/L) for an additional 48 h. Negative controls treated with solvent only were included for every sampling time. The final DMSO content of 0.04% (v/v) was kept constant in all inhibition experiments.
as §1, §3

XYLT2 mRNA expression = XYLT2 mRNA expression in NHDFs by qRT-PCR; format: cell-based, human; settings: TGF-β1 (5 μg/L) supplementation, 48 h
Experimental: as §4, §1
(§5) Quantitative real-time polymerase chain reaction (qRT-PCR) analysis using a LightCycler 480 Instrument II system (Roche, Basel, Swiss) was performed as previously described. The qRT-PCR experiments were conducted with three biological and three technical replicates per donor-derived primary cell culture, unless otherwise stated. The intron-spanning primer sequences used are listed in [7] and Table 1. The geometric mean of the expression levels of the housekeeping genes SDHA, RPL13A and B2M were calculated for expression normalization. The relative target gene mRNA expressions were determined by the ΔΔCT method considering the PCR efficiency. All normalized gene expression levels shown were referred to the respective target gene expression of one primary cell culture sample for the relative comparison of multiple biological samples per experiment and figures.

XYLT1 mRNA expression = XYLT1 mRNA expression in NHDFs by qRT-PCR; format: cell-based, human; settings: TGF-β1 5 μg/L, 48 h
Experimental: as §2, §1, §5

[1] = Table 2, 50 μM inhibitor, relative to control (DMSO = 100%), technical duplicates
[2] = Table S1, 50 μM inhibitor, relative to negative control containing DMSO, technical duplicates

Compound	remaining activity at 50 µM (recombinant human XT-I; [2]) [%]	XT-I Activity [%] (recombinant human XT-I; [2])	also measured
COc1cc(/C=C/C(=O)CC(=O)/C=C/c2ccc(O)c(OC)c2)ccc1O [Compound 86, Curcumin]	43		XT-I Activity [%] (recombinant human XT-I; [1]): 43%
Clc1ccc(C(Cn2ccnc2)OCc2ccsc2Cl)c(Cl)c1 (stereo not shown) [Compound 87, Tioconazole]	136		
Clc1ccc(COC(Cn2ccnc2)c2ccc(Cl)cc2Cl)c(Cl)c1 (stereo not shown) [Compound 88, Miconazole Nitrate]	149		
Cc1nnc(NS(=O)(=O)c2ccc(N)cc2)s1 [Compound 89, Sulfamethizole]	111		
CC1(C)[C@H](C(=O)O)N2C(=O)C[C@H]2S1(=O)=O [Compound 90, Sulbactam]	138		
COc1cc(NS(=O)(=O)c2ccc(N)cc2)nc(OC)n1 [Compound 91, Sulphadimethoxine]		132	
Cl.N=c1ccn2c(n1)O[C@H]1[C@H](O)[C@@H](CO)O[C@H]12 [Compound 92, Cyclocytidine HCl]		142	
Cl.Nc1ncnc2nc[nH]c12 [Compound 93, Adenine HCl]		146	
COc1cc(CNC(=O)CCCC/C=C/C(C)C)ccc1O [Compound 94, Capsaicin (Vanilloid)]			XT-I Activity [%] (recombinant human XT-I): 135%
C[C@@H]1C(=O)O[C@H]2C[C@@]34[C@H]5C[C@@H](C(C)(C)C)[C@]36[C@@H](OC(=O)[C@@H]6O)O[C@@]4(C(=O)O5)[C@]21O [Compound 95, Ginkgolide A]	150		
Bleomycin sulfate [Compound 96]		149	
Ginkgolide B [Compound 69]		100	
Oxytetracycline (Terramycin) [Compound 74]		17	XT-I Activity [%] (recombinant human XT-I; [1]): 17%
TGF-β1: Recombinant human TGF-β1, pro-fibrotic mediator used to stimulate fibroblasts			miRNA-21 expression relative to untreated (miRNA-21): 2.5 ± 0.2 fold; SMAD7 mRNA expression relative to control (SMAD7 mRNA expression): 1.8 ± 0.2 fold; TGFB1 mRNA expression (autoinduction) relative to control (TGFB1 mRNA expression): 1.1 ± 0.08 fold; XYLT2 mRNA expression level (XYLT2 mRNA expression): unaffected; increase in XYLT1 mRNA expression relative to untreated control (XYLT1 mRNA expression; Figure 5A–D): 3.7 ± 0.3 fold; increase in XYLT1 mRNA expression relative to untreated control (XYLT1 mRNA expression; Figure 5E): 4.6 ± 0.2 fold
Vitamin B12 [Compound 65]		94	
